Measured values as given in ChEMBL document CHEMBL1124763, “Nucleoside conjugates. 11. Synthesis and antitumor activity of 1-beta-D-arabinofuranosylcytosine and cytidine conjugates of thioether lipids” (1990).

Key:
[1] = system: Mus musculus; assay: Increase of life span was determined against Ip implanted L1210 / ara-C lymphoid leukemia in mice at a dose of 167 mg/kg per day; type: functional; conditions: route intraperitoneal
[2] = system: Mus musculus; assay: Increase of life span was determined against Ip implanted L1210 / ara-C lymphoid leukemia in mice at a dose of 300 mg/kg per day; type: functional; conditions: route intraperitoneal
[3] = system: Mus musculus; assay: Increase of life span was determined against Ip implanted L1210 / ara-C lymphoid leukemia in mice at a dose of 60 mg/kg per day; type: functional; conditions: route intraperitoneal
[4] = system: Mus musculus; assay: Increase of life span was determined against Ip implanted L1210 / 0 lymphoid leukemia in mice at a dose of 100 mg/kg per day after treatment 1-5; type: functional; conditions: L1210/0, ip, route intraperitoneal
[5] = system: Mus musculus; assay: Increase of life span was determined against Ip implanted L1210 / 0 lymphoid leukemia in mice at a dose of 300 mg/kg per day after treatment 1; type: functional; conditions: L1210/0, ip, route intraperitoneal
[6] = system: Mus musculus; assay: Range of survival days for antitumor activity against Ip implanted L1210 / 0 lymphoid leukemia in mice at a dose of 60 mg/kg per day after treatment 1-5;range is 16-37; type: functional; conditions: route intraperitoneal
[7] = system: Mus musculus; assay: Increase of life span was determined against Ip implanted L1210 / 0 lymphoid leukemia in mice at a dose of 300 mg/kg per day after treatment 5; type: functional; conditions: L1210/0, ip, route intraperitoneal
[8] = system: Mus musculus; assay: Range of survival days for antitumor activity against Ip implanted L1210 / ara-C lymphoid leukemia in mice at a dose of 167 mg/kg per day; type: functional; conditions: route intraperitoneal
[9] = system: Mus musculus; assay: Range of survival days for antitumor activity against Ip implanted L1210 / ara-C lymphoid leukemia in mice at a dose of 300 mg/kg per day; type: functional; conditions: route intraperitoneal
[10] = system: Mus musculus; assay: Range of survival days for antitumor activity against Ip implanted L1210 / ara-C lymphoid leukemia in mice at a dose of 60 mg/kg per day; type: functional; conditions: route intraperitoneal
[11] = system: Mus musculus; assay: Increase of life span was determined against Ip implanted L1210 / 0 lymphoid leukemia in mice at a dose of 400 mg/kg per day after treatment 1; type: functional; conditions: L1210/0, ip, route intraperitoneal
[12] = system: Mus musculus; assay: Increase of life span was determined against Ip implanted L1210 / 0 lymphoid leukemia in mice at a dose of 400 mg/kg per day after treatment 5; type: functional; conditions: L1210/0, ip, route intraperitoneal
[13] = system: Mus musculus; assay: Increase of life span was determined against Ip implanted L1210 / 0 lymphoid leukemia in mice at a dose of 60 mg/kg per day after treatment 1-5; type: functional; conditions: L1210/0, ip, route intraperitoneal
[14] = system: Mus musculus; assay: Range of survival days for antitumor activity against Ip implanted L1210 / 0 lymphoid leukemia in mice at a dose of 100 mg/kg per day after treatment 1-5;range is 14->45; type: functional; conditions: route intraperitoneal
[15] = system: Mus musculus; assay: Range of survival days for antitumor activity against Ip implanted L1210 / 0 lymphoid leukemia in mice at a dose of 300 mg/kg per day after treatment 1;range is 18-30; type: functional; conditions: route intraperitoneal
[16] = system: Mus musculus; assay: Range of survival days for antitumor activity against Ip implanted L1210 / 0 lymphoid leukemia in mice at a dose of 400 mg/kg per day after treatment 1;range is 16->45; type: functional; conditions: route intraperitoneal
[17] = system: Mus musculus; assay: Survival time treated / survival time (T/C) for antitumor activity against Ip implanted L1210 / 0 lymphoid leukemia in mice at a dose of 300 mg/kg per day after treatment 1;25/7; type: functional; conditions: route intraperitoneal
[18] = system: Mus musculus; assay: Survival time treated / survival time (T/C) for antitumor activity against Ip implanted L1210 / 0 lymphoid leukemia in mice at a dose of 100 mg/kg per day after treatment 1-5;36.5/8; type: functional; conditions: route intraperitoneal
[19] = system: Mus musculus; assay: Survival time treated / survival time (T/C) for antitumor activity against Ip implanted L1210 / 0 lymphoid leukemia in mice at a dose of 300 mg/kg per day after treatment 5;17/8; type: functional; conditions: route intraperitoneal
[20] = system: Mus musculus; assay: Survival time treated / survival time (T/C) for antitumor activity against Ip implanted L1210 / 0 lymphoid leukemia in mice at a dose of 400 mg/kg per day after treatment 1;27.5/7; type: functional; conditions: route intraperitoneal
[21] = system: Mus musculus; assay: Survival time treated / survival time (T/C) for antitumor activity against Ip implanted L1210 / 0 lymphoid leukemia in mice at a dose of 400 mg/kg per day after treatment 5;16.5/8; type: functional; conditions: route intraperitoneal
[22] = system: Mus musculus; assay: Survival time treated / survival time (T/C) for antitumor activity against Ip implanted L1210 / 0 lymphoid leukemia in mice at a dose of 60 mg/kg per day after treatment 1-5;26.5/8; type: functional; conditions: route intraperitoneal
[23] = system: Mus musculus; assay: Survival time treated/survival time tested (T/C) for antitumor activity against Ip implanted L1210 / ara-C lymphoid leukemia in mice at a dose of 300 mg/kg per day; type: functional; conditions: route intraperitoneal
[24] = system: Mus musculus; assay: Survival time treated/survival time tested (T/C) for antitumor activity against Ip implanted L1210 / ara-C lymphoid leukemia in mice at a dose of 60 mg/kg per day; type: functional; conditions: route intraperitoneal
[25] = system: Mus musculus; assay: Survival time treated/survival time tested (T/C) for antitumor activity against Ip implanted L1210 / ara-C lymphoid leukemia in mice at a dose of 167 mg/kg per day; type: functional; conditions: route intraperitoneal
[26] = system: Mus musculus; assay: Range of survival days for antitumor activity against Ip implanted L1210 / 0 lymphoid leukemia in mice at a dose of 300 mg/kg per day after treatment 5;range is 15-21; type: functional; conditions: route intraperitoneal
[27] = system: Mus musculus; assay: Range of survival days for antitumor activity against Ip implanted L1210 / 0 lymphoid leukemia in mice at a dose of 400 mg/kg per day after treatment 5;[…]; type: functional; conditions: route intraperitoneal
[28] = system: Mus musculus; assay: Increase of life span was determined against Ip implanted L1210 / 0 lymphoid leukemia in mice at a dose of 100 mg/kg per day after treatment 1; type: functional; conditions: L1210/0, ip, route intraperitoneal
[29] = system: Mus musculus; assay: Increase of life span was determined against Ip implanted L1210 / 0 lymphoid leukemia in mice at a dose of 200 mg/kg per day after treatment 1; type: functional; conditions: L1210/0, ip, route intraperitoneal
[30] = system: Mus musculus; assay: Range of survival days for antitumor activity against Ip implanted L1210 / 0 lymphoid leukemia in mice at a dose of 100 mg/kg per day after treatment 1; range is 9-10; type: functional; conditions: route intraperitoneal
[31] = system: Mus musculus; assay: Range of survival days for antitumor activity against Ip implanted L1210 / 0 lymphoid leukemia in mice at a dose of 200 mg/kg per day after treatment 1; range is 4-12; type: functional; conditions: route intraperitoneal
[32] = system: Mus musculus; assay: Survival time treated / survival time (T/C) for antitumor activity against Ip implanted L1210 / 0 lymphoid leukemia in mice at a dose of 200 mg/kg per day after treatment 1;7.5/8; type: functional; conditions: route intraperitoneal
[33] = system: Mus musculus; assay: Survival time treated / survival time (T/C) for antitumor activity against Ip implanted L1210 / 0 lymphoid leukemia in mice at a dose of 100 mg/kg per day after treatment 1;9.5/8; type: functional; conditions: route intraperitoneal
[34] = system: Mus musculus; assay: Range of survival days for antitumor activity against Ip implanted L1210 / 0 lymphoid leukemia in mice at a dose of 80 mg/kg per day after treatment 1-5; range is 14-19; type: functional; conditions: route intraperitoneal
[35] = system: Mus musculus; assay: Increase of life span was determined against Ip implanted L1210 / 0 lymphoid leukemia in mice at a dose of 80 mg/kg per day after treatment 1-5; type: functional; conditions: L1210/0, ip, route intraperitoneal
[36] = system: Mus musculus; assay: Range of survival days for antitumor activity against Ip implanted L1210 / 0 lymphoid leukemia in mice at a dose of 100 mg/kg per day after treatment 1- 5; range is 15-32; type: functional; conditions: route intraperitoneal
[37] = system: Mus musculus; assay: Range of survival days for antitumor activity against Ip implanted L1210 / 0 lymphoid leukemia in mice at a dose of 400 mg/kg per day after treatment 1; range is 11-15; type: functional; conditions: route intraperitoneal
[38] = system: Mus musculus; assay: Survival time treated / survival time (T/C) for antitumor activity against Ip implanted L1210 / 0 lymphoid leukemia in mice at a dose of 100 mg/kg per day after treatment 1-5;21.5/8; type: functional; conditions: route intraperitoneal
[39] = system: Mus musculus; assay: Survival time treated / survival time (T/C) for antitumor activity against Ip implanted L1210 / 0 lymphoid leukemia in mice at a dose of 400 mg/kg per day after treatment 1;14/8; type: functional; conditions: route intraperitoneal
[40] = system: Mus musculus; assay: Survival time treated / survival time (T/C) for antitumor activity against Ip implanted L1210 / 0 lymphoid leukemia in mice at a dose of 80 mg/kg per day after treatment 1-5;16/8; type: functional; conditions: route intraperitoneal
[41] = system: Mus musculus; assay: Increase of life span was determined against Ip implanted L1210 / 0 lymphoid leukemia in mice at a dose of 200 mg/kg per day after treatment 1-5; type: functional; conditions: L1210/0, ip, route intraperitoneal
[42] = system: Mus musculus; assay: Range of survival days for antitumor activity against Ip implanted L1210 / 0 lymphoid leukemia in mice at a dose of 400 mg/kg per day after treatment 1; range is 8-10; type: functional; conditions: route intraperitoneal
[43] = system: Mus musculus; assay: Range of survival days for antitumor activity against Ip implanted L1210 / 0 lymphoid leukemia in mice at a dose of 400 mg/kg per day after treatment 5; type: functional; conditions: route intraperitoneal
[44] = system: Mus musculus; assay: Range of survival days for antitumor activity against Ip implanted L1210 / 0 lymphoid leukemia in mice at a dose of 200 mg/kg per day after treatment 1-5; range is 15-17; type: functional; conditions: route intraperitoneal
[45] = system: Mus musculus; assay: Survival time treated for antitumor activity against Ip implanted L1210 / 0 lymphoid leukemia in mice at a dose of 400 mg/kg per day after treatment 1;8/7; conditions: route intraperitoneal
[46] = system: Mus musculus; assay: Survival time treated for antitumor activity against Ip implanted L1210 / 0 lymphoid leukemia in mice at a dose of 400 mg/kg per day after treatment 5;10/7; conditions: route intraperitoneal
[47] = system: Mus musculus; assay: Survival time treated for antitumor activity against Ip implanted L1210 / 0 lymphoid leukemia in mice at a dose of 200 mg/kg per day after treatment 1-5;16/7; conditions: route intraperitoneal

In the case of `CCCCCCCCCCCCCCCCSCC(COP(=O)(O)OP(=O)(O)OC[C@H]1OC(n2ccc(N)nc2=O)[C@@H](O)[C@@H]1O)OC(=O)CCCCCCCCCCCCCCC` (mixture of isomers), the ILS at 167 mg/kg/day [1] is reported as 310%, the ILS at 300 mg/kg/day [2] is reported as > 400% and the ILS at 60 mg/kg/day [3] is reported as > 356%. For the same molecule, the ILS at 100 mg/kg/day [4] was 356%, the ILS at 300 mg/kg/day [5] was 257% and the “Range of survival days” value [6] was 16. For the same molecule, the ILS at 300 mg/kg/day [7] was 113%, the Range [8] was >7 and the Range [9] was >45. For the same molecule, the Range [10] was >29, the ILS at 400 mg/kg/day [11] was 293% and the ILS at 400 mg/kg/day [12] was 106%. The ILS at 60 mg/kg/day [13] was 231%, the “Range of survival days” value [14] was >14 and the “Range of survival days” value [15] was 18. The “Range of survival days” value [16] was >16, the T/C [17] was 25 and the T/C [18] was 36.5. The T/C [19] was 17, the T/C [20] was 27.5 and the T/C [21] was 16.5. For the same molecule, the T/C [22] was 26.5, the T/C [23] was >45 and the T/C [24] was >41. For the same molecule, the T/C [25] was 41, the “Range of survival days” value [26] was 15 and the “Range of survival days” value [27] was 15.

For `CCCCCCCCCCCCCCCCCCSCC(COP(=O)(O)OP(=O)(O)OC[C@H]1OC(n2ccc(N)nc2=O)[C@@H](O)[C@@H]1O)OCC` (mixture of isomers), the ILS at 100 mg/kg/day [28] was 19%, the ILS at 200 mg/kg/day [29] was -6% and the “Range of survival days” value [30] was 9. For the same molecule, the “Range of survival days” value [31] was 4, the T/C [32] was 7.5 and the T/C [33] was 9.5.

In the case of `CCCCCCCCCCCCCCCCCCSCC(COP(=O)(O)OP(=O)(O)OC[C@H]1OC(n2ccc(N)nc2=O)[C@@H](O)[C@@H]1O)OCCCCCCCCCCCCCCCC` (mixture of isomers), the ILS at 100 mg/kg/day [4] is reported as 169%, the “Range of survival days” value [34] is reported as 14 and the ILS at 400 mg/kg/day [11] is reported as 75%. For the same molecule, the ILS at 80 mg/kg/day [35] was 100%, the “Range of survival days” value [36] was 15 and the “Range of survival days” value [37] was 11. It also gave a T/C [38] of 21.5, a T/C [39] of 14 and a T/C [40] of 16.

For `Nc1ccn([C@@H]2O[C@H](CO)[C@@H](O)[C@@H]2O)c(=O)n1` [CYTARABINE], the ILS at 200 mg/kg/day [41] was 129%, the ILS at 400 mg/kg/day [11] was 14% and the ILS at 400 mg/kg/day [12] was 43%. For the same molecule, the “Range of survival days” value [42] was 8, the “Range of survival days” value [43] was 10 and the “Range of survival days” value [44] was 15. It also gave a survival time [45] of 8 days, a survival time [46] of 10 days and a survival time [47] of 16 days.
